From patent US20160002248A1, “GLS1 INHIBITORS FOR TREATING DISEASE” (Board of Regents, The University of Texas System, priority 2014, published 2016) come the findings set out here.

Experiment [1] concerns the target T1, purified recombinant human GAC (GLS1) (Homo sapiens, UniProt O94925).
T1 sequence (O94925 55-598 isoform O94925-3 limits assumed): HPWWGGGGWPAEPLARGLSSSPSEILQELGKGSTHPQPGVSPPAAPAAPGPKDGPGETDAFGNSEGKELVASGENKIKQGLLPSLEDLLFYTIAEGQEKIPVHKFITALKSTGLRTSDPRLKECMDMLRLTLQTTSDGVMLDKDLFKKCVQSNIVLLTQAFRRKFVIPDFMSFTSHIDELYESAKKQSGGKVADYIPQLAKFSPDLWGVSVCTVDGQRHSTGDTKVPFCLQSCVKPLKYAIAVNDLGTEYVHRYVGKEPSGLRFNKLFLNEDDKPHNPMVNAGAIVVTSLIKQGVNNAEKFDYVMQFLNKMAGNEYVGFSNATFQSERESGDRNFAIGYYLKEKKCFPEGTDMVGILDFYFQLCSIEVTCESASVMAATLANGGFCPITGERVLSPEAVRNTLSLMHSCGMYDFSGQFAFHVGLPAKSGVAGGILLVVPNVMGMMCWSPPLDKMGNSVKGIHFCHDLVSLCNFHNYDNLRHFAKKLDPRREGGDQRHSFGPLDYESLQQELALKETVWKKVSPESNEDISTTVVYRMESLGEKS
The experiment in a line: GLS1 Enzymatic Activity Assay (dual-coupled enzymatic assay). Format: biochemical. Put shortly: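 GAC activity measured by coupling glutamate to glutamate oxidase and HRP, generating resorufin from Amplex UltraRed. Enzyme (2 nM) preincubated with 50 mM potassium phosphate 10 min at room temperature, then inhibitor 10 min; 1 mM glutamine substrate, 1% DMSO. Fluorescence 530/590 nm, kinetic or 20-min endpoint; IC50 from four-parameter logistic fit.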

Another experiment concerns A549 cells. The experiment in a line: Proliferation Assay (A549 cell viability, Cell Titer Fluor). Format: cell-based. As to conditions: Homo sapiens, 72 hours. Put shortly: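 Compound was added to A549 cells (1000/well, pre-grown 24 h in RPMI 1640 plus 10% dialyzed FBS) at 0.5% DMSO and left 72 h under 37 °C, 5% CO2, ambient O2. Live-cell fluorescence (Cell Titer Fluor) gave the EC50.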

pEC50, pIC50: −log10 of the molar value.

For the compound `CC(C)(CO)CNC(=O)c1nnc(CCCCc2cc3cc(Cc4ccccc4)[nH]c3nn2)s1` [Example 79, 5-(4-{6-benzyl-7H-pyrrolo[2,3-c]pyridazin-3-yl}butyl)-N-(3-hydroxy-2,2-dimethylpropyl)-1,3,4-thiadiazole-2-carboxamide], the pIC50 (in general, the IC50 on a negative log10 scale, so that one unit is a factor of ten) in experiment [1] was 6.30 to 7.00. Besides, the pEC50 – broadly, −log10 of the EC50, conventionally taken in molar units – in the experiment with A549 cells was 5.30 to 6.30.

For the compound `NC(=O)c1nnc(CCCCc2cc3cc(Cc4ccccc4)[nH]c3nn2)s1` [Example 80, 5-(4-{6-benzyl-7H-pyrrolo[2,3-c]pyridazin-3-yl}butyl)-1,3,4-thiadiazole-2-carboxamide], the negative logarithm of the IC50 (pIC50) in experiment [1] was 6.30 to 7.00. This compound showed a pEC50 in the experiment on A549 cells of 5.30 to 6.30.

As to `O=C(NCC(F)(F)F)c1nnc(CCCCc2cc3cc(Cc4ccccc4)[nH]c3nn2)s1` [Example 81, 5-(4-{6-benzyl-7H-pyrrolo[2,3-c]pyridazin-3-yl}butyl)-N-(2,2,2-trifluoroethyl)-1,3,4-thiadiazole-2-carboxamide], the pIC50 in experiment [1] was 6.30 to 7.00. Besides, the negative logarithm of the EC50 (pEC50) in the experiment with A549 cells is under 5.30.

Consider `O=C(NCC1CCOC1)c1nnc(CCCCc2cc3cc(Cc4ccccc4)[nH]c3nn2)s1` (stereo not shown) [Example 82, 5-(4-{6-benzyl-7H-pyrrolo[2,3-c]pyridazin-3-yl}butyl)-N-(oxolan-3-ylmethyl)-1,3,4-thiadiazole-2-carboxamide], for which, in experiment [1], the negative logarithm of the IC50 (pIC50) is 6.30 to 7.00. The same compound had a negative-log EC50 (pEC50) in the experiment with A549 cells of 5.30 to 6.30.

In the case of `O=C(NCCC(F)(F)F)c1nnc(CCCCc2cc3cc(Cc4ccccc4)[nH]c3nn2)s1` [Example 83, 5-(4-{6-benzyl-7H-pyrrolo[2,3-c]pyridazin-3-yl}butyl)-N-(3,3,3-trifluoropropyl)-1,3,4-thiadiazole-2-carboxamide], the pIC50 in experiment [1] is 6.30 to 7.00. In the experiment on A549 cells, this compound showed a pEC50 of under 5.30.

On to `COC(C)(C)CNC(=O)c1nnc(CCCCc2cc3cc(Cc4ccccc4)[nH]c3nn2)s1` [Example 84, 5-(4-{6-benzyl-7H-pyrrolo[2,3-c]pyridazin-3-yl}butyl)-N-(2-methoxy-2-methylpropyl)-1,3,4-thiadiazole-2-carboxamide], for which, in experiment [1], the pIC50 is 6.30 to 7.00. In addition, in the experiment with A549 cells, the negative logarithm of the EC50 (pEC50) was 5.30 to 6.30.

As to `O=C(NCc1ccccn1)c1cn(CCCCc2cc3cc(CC4CCCCC4)[nH]c3nn2)nn1` [Example 85, 1-(4-(6-(cyclohexylmethyl)-7H-pyrrolo[2,3-c]pyridazin-3-yl)butyl)-N-(pyridin-2-ylmethyl)-1H-1,2,3-triazole-4-carboxamide], in experiment [1], the negative-log IC50 (pIC50) is over 7.00. This compound gave a negative logarithm of the EC50 (pEC50) with A549 cells of over 7.00.

`CC(C)(O)c1ccc(CNC(=O)c2cn(CCCCc3cc4cc(C5CC5)[nH]c4nn3)nn2)cn1` [Example 86, 1-(4-{6-cyclopropyl-7H-pyrrolo[2,3-c]pyridazin-3-yl}butyl)-N-{[6-(2-hydroxypropan-2-yl)pyridin-3-yl]methyl}-1H-1,2,3-triazole-4-carboxamide]: in experiment [1], the pIC50 is over 7.00. For the same compound, the pEC50 in the experiment on A549 cells is 6.30 to 7.00.

`CC(C)(O)c1cccc(CNC(=O)c2cn(CCCCc3cc4cc(C5CC5)[nH]c4nn3)nn2)n1` [Example 87, 1-(4-(6-cyclopropyl-7H-pyrrolo[2,3-c]pyridazin-3-yl)butyl)-N-((6-(2-hydroxypropan-2-yl)pyridin-2-yl)methyl)-1H-1,2,3-triazole-4-carboxamide]: in experiment [1], the negative-log IC50 (pIC50) was 6.30 to 7.00. Besides, the negative-log EC50 (pEC50) with A549 cells is 5.30 to 6.30.

On to `CCOC(=O)c1cccc(CNC(=O)c2cn(CCCCc3cc4cc(C5CC5)[nH]c4nn3)nn2)n1` [Example 88, ethyl 6-({[1-(4-{6-cyclopropyl-7H-pyrrolo[2,3-c]pyridazin-3-yl}butyl)-1H-1,2,3-triazol-4-yl]formamido}methyl)pyridine-2-carboxylate], for which the negative-log IC50 (pIC50) in experiment [1] is over 7.00. Also, the negative-log EC50 (pEC50) in the experiment with A549 cells is 5.30 to 6.30.

Take `CC(C)(O)c1ccc(CNC(=O)c2cn(CCCCc3cc4c(Br)c(C5CC5)[nH]c4nn3)nn2)cn1` [Example 89, 1-(4-{5-bromo-6-cyclopropyl-7H-pyrrolo[2,3-c]pyridazin-3-yl}butyl)-N-{[6-(2-hydroxypropan-2-yl)pyridin-3-yl]methyl}-1H-1,2,3-triazole-4-carboxamide]: in experiment [1], the negative-log IC50 (pIC50) is over 7.00. Moreover, the pEC50 in the experiment with A549 cells is 6.30 to 7.00.

As for `Cc1ccc(CNC(=O)c2cn(CCCCc3cc4c(F)c(C5CC5)[nH]c4nn3)nn2)cn1` [Example 90, 1-(4-(6-cyclopropyl-5-fluoro-7H-pyrrolo[2,3-c]pyridazin-3-yl)butyl)-N-((6-methylpyridin-3-yl)methyl)-1H-1,2,3-triazole-4-carboxamide 2,2,2-trifluoroacetate], the negative logarithm of the IC50 (pIC50) in experiment [1] is over 7.00. Moreover, the negative logarithm of the EC50 (pEC50) in the experiment with A549 cells was 5.30 to 6.30.

For `Cc1ccc(CNC(=O)c2cn(CCCCc3cc4c(I)c(C5CC5)[nH]c4nn3)nn2)cn1` [Example 91, 1-(4-{6-cyclopropyl-5-iodo-7H-pyrrolo[2,3-c]pyridazin-3-yl}butyl)-N-[(6-methylpyridin-3-yl)methyl]-1H-1,2,3-triazole-4-carboxamide], the pIC50 in experiment [1] is over 7.00. The pEC50 in the experiment on A549 cells was 6.30 to 7.00.

For `Cc1ccc(CNC(=O)c2cn(CCCCc3cc4cc(Cc5ccccc5)[nH]c4nn3)nn2)cn1` [Example 92, 1-(4-{6-benzyl-7H-pyrrolo[2,3-c]pyridazin-3-yl}butyl)-N-[(6-methylpyridin-3-yl)methyl]-1H-1,2,3-triazole-4-carboxamide], in experiment [1], the negative logarithm of the IC50 (pIC50) was over 7.00. Also, the negative-log EC50 (pEC50) in the experiment on A549 cells is 6.30 to 7.00.

Regarding `CC(C)(C)OC(=O)NCc1cccc(CNC(=O)c2cn(CCCCc3cc4cc(C5CC5)[nH]c4nn3)nn2)c1` [Example 93, tert-butyl N-{[3-({[1-(4-{6-cyclopropyl-7H-pyrrolo[2,3-c]pyridazin-3-yl}butyl)-1H-1,2,3-triazol-4-yl]formamido}methyl)phenyl]methyl}carbamate], the pIC50 in experiment [1] is over 7.00. For the same compound, in the experiment with A549 cells, the pEC50 was over 7.00.

Take `Cc1ccc(CNC(=O)c2cn(CCCCc3cc4cc(C5CN(C(=O)OC(C)(C)C)C5)[nH]c4nn3)nn2)cn1` [Example 94, tert-butyl 3-{3-[4-(4-{[(6-methylpyridin-3-yl)methyl]carbamoyl}-1H-1,2,3-triazol-1-yl)butyl]-7H-pyrrolo[2,3-c]pyridazin-6-yl}azetidine-1-carboxylate]: the pIC50 in experiment [1] was over 7.00. The compound further had a pEC50 in the experiment with A549 cells of 6.30 to 7.00.

As for `Cc1ccc(CNC(=O)c2cn(CCCCc3cc4cc(C5CCN(C(=O)OC(C)(C)C)CC5)[nH]c4nn3)nn2)cn1` [Example 95, ten-butyl 4-{3-[4-(4-{[(6-methylpyridin-3-yl)methyl]carbamoyl}-1H-1,2,3-triazol-1-yl)butyl]-7H-pyrrolo[2,3-c]pyridazin-6-yl}piperidine-1-carboxylate], the negative logarithm of the IC50 (pIC50) in experiment [1] is over 7.00. Moreover, the negative logarithm of the EC50 (pEC50) in the experiment with A549 cells was 6.30 to 7.00.

`Cc1ccc(CNC(=O)c2cn(CCCCc3cc4c(C5CC5)c(C5CC5)[nH]c4nn3)nn2)cn1` [Example 96, 1-(4-(5,6-dicyclopropyl-7H-pyrrolo[2,3-c]pyridazin-3-yl)butyl)-N-((6-methylpyridin-3-yl)methyl)-1H-1,2,3-triazole-4-carboxamide]: the pIC50 in experiment [1] is over 7.00. The same compound gave a negative logarithm of the EC50 (pEC50) with A549 cells of 6.30 to 7.00.

For `Cc1ccc(CNC(=O)c2cn(CCCCc3cc4cc(C5CNC5)[nH]c4nn3)nn2)cn1` [Example 97, 1-{4-[6-(azetidin-3-yl)-7H-pyrrolo[2,3-c]pyridazin-3-yl]butyl}-N-[(6-methylpyridin-3-yl)methyl]-1H-1,2,3-triazole-4-carboxamide], the pIC50 in experiment [1] was 6.30 to 7.00. This compound showed a pEC50 with A549 cells of 5.30 to 6.30.

For the compound `Cc1ccc(CNC(=O)c2cn(CCCCc3cc4cc(C5CCNCC5)[nH]c4nn3)nn2)cn1` [Example 98, N-[(6-methylpyridin-3-yl)methyl]-1-{4-[6-(piperidin-4-yl)-7H-pyrrolo[2,3-c]pyridazin-3-yl]butyl}-1H-1,2,3-triazole-4-carboxamide], the negative-log IC50 (pIC50) in experiment [1] was 5.30 to 6.30. In addition, the pEC50 in the experiment on A549 cells is under 5.30.

With `Cc1ccc(CNC(=O)c2cn(CCCCc3cc4cc(C5CCOCC5)[nH]c4nn3)nn2)cn1` [Example 99, N-[(6-methylpyridin-3-yl)methyl]-1-{4-[6-(oxan-4-yl)-7H-pyrrolo[2,3-c]pyridazin-3-yl]butyl}-1H-1,2,3-triazole-4-carboxamide], in experiment [1], the pIC50 is 6.30 to 7.00. This compound gave a pEC50 in the experiment on A549 cells of 5.30 to 6.30.

For the compound `Cc1ccc(CNC(=O)c2cn(CCCCc3cc4c(CCc5ccccc5)c(C5CC5)[nH]c4nn3)nn2)cn1` [Example 100, 1-{4-[6-cyclopropyl-5-(2-phenylethyl)-7H-pyrrolo[2,3-c]pyridazin-3-yl]butyl}-N-[(6-methylpyridin-3-yl)methyl]-1H-1,2,3-triazole-4-carboxamide], in experiment [1], the negative-log IC50 (pIC50) was over 7.00. The same compound gave a negative logarithm of the EC50 (pEC50) in the experiment with A549 cells of 6.30 to 7.00.

On to `O=C(NCc1ccccn1)c1cn(CCCCc2cc3c(Cc4ccc5ccccc5c4)c(C4CC4)[nH]c3nn2)nn1` [Example 101, 1-{4-[6-cyclopropyl-5-(naphthalen-2-ylmethyl)-7H-pyrrolo[2,3-c]pyridazin-3-yl]butyl}-N-(pyridin-2-ylmethyl)-1H-1,2,3-triazole-4-carboxamide], for which the negative logarithm of the IC50 (pIC50) in experiment [1] was over 7.00. Also, in the experiment on A549 cells, the pEC50 is 6.30 to 7.00.
